The values that follow come from ChEMBL document CHEMBL1127269, “Synthesis and DNA binding properties of a series of N to C linked and imidazole containing analogues of distamycin” (Bioorg Med Chem Lett, 1994).

Common to all, as to type: nucleic-acid assay
In assay [1] the test system is Nucleic Acid. Kind of assay: Tested for binding association constant against calf thymus using ethidium bromide assay. The settings on record: Bos taurus.
The test system of assay [2] is Nucleic Acid. Description: Tested for binding association constant against T4 coliphage DNA using ethidium bromide assay.
In assay [3] the test system is Nucleic Acid. Kind of assay: Tested for binding association constant against Poly (dA.dT) using ethidium bromide assay.
For assay [4], the system named is Nucleic Acid. Description: Tested for binding association constant against Poly (dG-dC) using ethidium bromide assay.
Assay [5] relates to Nucleic Acid. Kind of assay: Tested for binding association constant against calf thymus DNA using ethidium bromide assay. Conditions: Bos taurus.

Take `CN(C)CCNC(=O)c1nc(NC(=O)c2nc(NC(=O)CCNC(=O)c3nc(NC=O)cn3C)cn2C)cn1C`: the K app in the assay on Nucleic Acid [1] was determined as 1.6e+06 M⁻¹; in the assay with Nucleic Acid [2], 1.9e+06 M⁻¹; in the assay on Nucleic Acid [3], 250000 M⁻¹; in the assay on Nucleic Acid [4], 5.2e+06 M⁻¹.

On to `CN(C)CCNC(=O)c1nc(NC(=O)CCCNC(=O)c2nc(NC=O)cn2C)cn1C`, for which the K app in the assay with Nucleic Acid [1] was 10000 M⁻¹; in the assay with Nucleic Acid [2] it was 33000 M⁻¹; with Nucleic Acid [3], 10000 M⁻¹; in the assay with Nucleic Acid [4], 21000 M⁻¹.

For `CN(C)CCNC(=O)c1nc(NC(=O)c2nc(NC(=O)CCCNC(=O)c3nc(NC=O)cn3C)cn2C)cn1C`, the K app in the assay with Nucleic Acid [1] stood at 48000 M⁻¹; in the assay on Nucleic Acid [2], 140000 M⁻¹; in the assay with Nucleic Acid [3], 50000 M⁻¹; in the assay on Nucleic Acid [4], 92000 M⁻¹.

`Cn1cc(NC(=O)c2cc(NC(=O)c3cc(NC=O)cn3C)cn2C)cc1C(=O)NCCC(=N)N`: the K app in the assay on Nucleic Acid [5] turned out to be 770000 M⁻¹; with Nucleic Acid [2], 650000 M⁻¹; in the assay with Nucleic Acid [3], 3.48e+07 M⁻¹; in the assay on Nucleic Acid [4] it was 200000 M⁻¹.

Take `CN(C)CCNC(=O)c1nc(NC(=O)CCNC(=O)c2nc(NC=O)cn2C)cn1C`: the K app in the assay on Nucleic Acid [1] worked out at 150000 M⁻¹; in the assay with Nucleic Acid [2], 140000 M⁻¹; with Nucleic Acid [3], 12000 M⁻¹; with Nucleic Acid [4], 580000 M⁻¹.
